Experimental findings from patent publication EP4631959A2, “NOVEL MINIGASTRIN-DERIVED CHOLECYSTOKININ 2 RECEPTOR BINDING MOLECULES FOR IMAGING AND TARGETED RADIOTHERAPY” (priority 2022, dated 2024) are described below.

Like-named read-outs stand apart in the source and are kept apart here. Starred links: 1 amine or outer side, 2 acyl side, 3 side chain; linkers in the order of their positions; H or OH if unused. Non-standard residues stand in square brackets, D forms with d. Residues, ends and D or L forms follow the SMILES beside them. *: point of attachment. X2 = O=C(O)CN1CCN(CC(=O)O)CCN([C@H](CCC(=O)*)C(=O)O)CCN(CC(=O)O)CC1; Benzoyl(4-SiFtBu2) = CC(C)(C)[Si](F)(c1ccc(C(=O)*)cc1)C(C)(C)C; DOTA = O=C(O)CN1CCN(CC(=O)O)CCN(CC(=O)*)CCN(CC(=O)O)CC1; NODAGA = O=C(O)CN1CCN(CC(=O)O)CCN(C(CCC(=O)*)C(=O)O)CC1; d(γGlu) = O=C(O)[C@@H](CCC(=O)[*:2])N[*:1]; Bip = N[C@@H](Cc1ccc(-c2ccccc2)cc1)C(=O)O; 1Nal = N[C@@H](Cc1cccc2ccccc12)C(=O)O; 2Nal = N[C@@H](Cc1ccc2ccccc2c1)C(=O)O; PEG5 = NCCOCCOCCOCCOCCOCCC(=O)O; NMeNle = CCCC[C@H](NC)C(=O)O; PEG4 = NCCOCCOCCOCCOCCC(=O)O; Nle = CCCC[C@H](N)C(=O)O; Dap = NC[C@H](N)C(=O)O

The test concerns the target T1, CCK-2R (Rattus norvegicus, UniProt P30553).
T1 construct: The CCK-2R expressing rat pancreatic tumor cells AR4-2J; host or cells: AR4-2J rat pancreatic tumor cells
T1 sequence (P30553 1-452): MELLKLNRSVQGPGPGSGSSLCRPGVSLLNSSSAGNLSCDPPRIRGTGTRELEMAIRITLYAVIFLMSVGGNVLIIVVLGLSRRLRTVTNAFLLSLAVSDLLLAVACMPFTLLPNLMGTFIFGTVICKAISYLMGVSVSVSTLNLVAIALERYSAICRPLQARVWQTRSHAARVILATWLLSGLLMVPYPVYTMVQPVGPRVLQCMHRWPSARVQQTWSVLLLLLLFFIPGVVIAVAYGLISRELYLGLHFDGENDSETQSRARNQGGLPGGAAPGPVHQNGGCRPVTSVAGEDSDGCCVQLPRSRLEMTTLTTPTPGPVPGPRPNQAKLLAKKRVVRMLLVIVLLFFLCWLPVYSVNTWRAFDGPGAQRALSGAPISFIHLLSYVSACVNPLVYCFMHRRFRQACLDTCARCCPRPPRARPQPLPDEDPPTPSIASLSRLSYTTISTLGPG
Kind of test: Determination of IC50: CCK-2R affinity on AR4-2J cells, competition with [^177Lu]Lu-DOTA-PP-F11N. It counts as binding. The procedure: AR4-2J cells were harvested 24 ± 2 h before the experiment and seeded in 24-well plates (2.0 × 10^5 cells in 1 mL/well). After removal of the nutrient medium (RPMI 1640, 5 mM L-Gln, 5 mL non-essential amino acids (100×), 10% FCS), the cells were washed once with 500 µL PBS. Thereafter, 200 µL nutrient medium (5% BSA, v/v) were added. Next, 25 µL per well of solutions containing either nutrient medium (5% BSA, v/v) as control or the respective compound in increasing concentration (10^-10 - 10^-4 M), were added with subsequent addition of 25 µL [^177Lu]Lu-DOTA-PP-F11N (0.3 pmol/well).
All experiments were performed in triplicate for each concentration. After 3 h incubation at 37 °C, the experiment was terminated by removal of the medium and consecutive rinsing with 300 µL PBS. The media of both steps were combined in one fraction and represent the amount of free radiolabeled reference. Afterwards, the cells were lysed with 300 µL of 1 M NaOH for at least 15 min and united with the 300 µL NaOH of the following washing step. Quantification of bound and free radiolabeled reference was accomplished in a γ-counter. IC50 determination for each conjugate was repeated twice.

[1] abbreviates: AR4-2J cells, references ^natLu-labeled, other peptides without chelator, read-out: IC50 [nM] (n = 3).
[2] abbreviates: AR4-2J cells, ^natLu-labeled, read-out: IC50 [nM] (n = 3), ^natLu-labeled.
Setting [3] is: AR4-2J cells, ^natGa-labeled, read-out: IC50 [nM] (n = 3), ^natGa-labeled.

As a reminder, the IC50 is the point on the concentration scale where inhibition reaches its midpoint. For `CCCC[C@H](NC(=O)[C@@H](N)Cc1c[nH]c2ccccc12)C(=O)N[C@@H](CC(=O)O)C(=O)N[C@@H](Cc1cccc2ccccc12)C(N)=O` [H-Trp-Nle-Asp-1-Nal-NH2] (H-W[Nle]D[1Nal]-NH2), under setting [1], the IC50 amounted to 297 ± 16 nM.

Take `CCCC[C@@H](C(=O)N[C@@H](CC(=O)O)C(=O)N[C@@H](Cc1ccc2ccccc2c1)C(N)=O)N(C)C(=O)[C@@H](N)Cc1c[nH]c2ccccc12` [H-Trp-(N-Me)Nle-Asp-2-Nal-NH2] (H-W[NMeNle]D[2Nal]-NH2): the IC50 under setting [1] stood at 102 ± 9 nM. Consider `CCCC[C@@H](C(=O)N[C@@H](CC(=O)O)C(=O)N[C@@H](Cc1cccc2ccccc12)C(N)=O)N(C)C(=O)[C@H](Cc1c[nH]c2ccccc12)NC(=O)CNC(=O)[C@H](Cc1ccc(O)cc1)NC(=O)[C@H](C)NC(=O)CC[C@@H](NC(=O)CN1CCN(CC(=O)O)CCN(CC(=O)O)CCN(CC(=O)O)CC1)C(=O)O` [DOTA-γ-MGS5, DOTA-γ-glu^6-Ala^7-Tyr^8-Gly^9-Trp^10-(N-Me)Nle^11-Asp^12-1-Nal^13-NH2, reference compound] ({DOTA-d(γGlu)}-AYGW[NMeNle]D[1Nal]-NH2), for which the IC50 under setting [1] stood at 4.9 ± 0.8 nM. As to `CCCC[C@H](NC(=O)[C@H](Cc1c[nH]c2ccccc12)NC(=O)CNC(=O)[C@H](Cc1ccc(O)cc1)NC(=O)[C@H](C)NC(=O)CC[C@@H](N)C(=O)O)C(=O)N[C@@H](CC(=O)O)C(=O)N[C@@H](Cc1ccc(-c2ccccc2)cc1)C(N)=O` [CCK-38, H-γ-glu-Ala-Tyr-Gly-Trp-Nle-Asp-Bip-NH2] ({d(γGlu)}-AYGW[Nle]D[Bip]-NH2), the 50% inhibitory concentration (IC50) under setting [1] was greater than 1000 nM. Consider `CCCC[C@@H](C(=O)N[C@@H](CC(=O)O)C(=O)N[C@@H](Cc1cccc2ccccc12)C(N)=O)N(C)C(=O)[C@H](Cc1c[nH]c2ccccc12)NC(=O)CNC(=O)CNC(=O)CNC(=O)CNC(=O)CN1CCN(CC(=O)O)CCN(CC(=O)O)CCN(CC(=O)O)CC1` [DOTA-CCK-55, DOTA-(Gly)4-Trp-(N-Me)Nle-Asp-1-Nal-NH2] ({DOTA}-GGGGW[NMeNle]D[1Nal]-NH2), for which the IC50 under setting [2] is 8.5 ± 1.2 nM.

Take `CCCC[C@@H](C(=O)N[C@@H](CC(=O)O)C(=O)N[C@@H](Cc1cccc2ccccc12)C(N)=O)N(C)C(=O)[C@H](Cc1c[nH]c2ccccc12)NC(=O)CNC(=O)CN1CCN(CC(=O)O)CCN(CC(=O)O)CCN(CC(=O)O)CC1` [DOTA-CCK-58, DOTA-Gly-Trp-(N-Me)Nle-Asp-1-Nal-NH2] ({DOTA}-GW[NMeNle]D[1Nal]-NH2): under setting [2], the half-inhibitory concentration (IC50) amounted to 98.9 ± 8.4 nM. Take `CCCC[C@H](NC(=O)[C@H](Cc1c[nH]c2ccccc12)NC(=O)CNC(=O)[C@H](Cc1ccc(O)cc1)NC(=O)[C@H](C)NC(=O)CC[C@@H](N)C(=O)O)C(=O)N[C@@H](CC(=O)O)C(=O)N[C@@H](CNC(=O)c1ccc([Si](F)(C(C)(C)C)C(C)(C)C)cc1)C(N)=O` [CCK-48, H-γ-glu-Ala-Tyr-Gly-Trp-Nle-Asp-Dap(SiFA)-NH2] ({d(γGlu)}-AYGW[Nle]D[Dap](Benzoyl(4-SiFtBu2))-NH2): the IC50 was greater than 10000 nM. Take `CCCC[C@@H](C(=O)N[C@@H](CC(=O)O)C(=O)N[C@@H](Cc1cccc2ccccc12)C(N)=O)N(C)C(=O)[C@H](Cc1c[nH]c2ccccc12)NC(=O)CCOCCOCCOCCOCCNC(=O)CC[C@@H](NC(=O)CCC(C(=O)O)N1CCN(CC(=O)O)CCN(CC(=O)O)CC1)C(=O)O` (stereo partly drawn) [NODAGA-CCK-66, NODAGA-γ-glu-(PEG)3-Trp-(N-Me)Nle-Asp-1-Nal-NH2] ({NODAGA-d(γGlu)-PEG4}-W[NMeNle]D[1Nal]-NH2): the IC50 under setting [3] stood at 4.9 ± 0.7 nM.

On to `CCCC[C@@H](C(=O)N[C@@H](CC(=O)O)C(=O)N[C@@H](Cc1cccc2ccccc12)C(N)=O)N(C)C(=O)[C@H](Cc1c[nH]c2ccccc12)NC(=O)CCOCCOCCOCCOCCOCCNC(=O)CN1CCN(CC(=O)O)CCN(CC(=O)O)CCN(CC(=O)O)CC1` [DOTA-CCK-50, DOTA-(PEG)4-Trp-(N-Me)Nle-Asp-1-Nal-NH2] ({DOTA-PEG5}-W[NMeNle]D[1Nal]-NH2), for which the IC50 (text values without printed unit, ^natLu-labeled, read-out: IC50) is 8.84 ± 1.25 nM. `CSCC[C@H](NC(=O)[C@H](Cc1c[nH]c2ccccc12)NC(=O)CNC(=O)[C@H](Cc1ccc(O)cc1)NC(=O)[C@H](C)NC(=O)[C@@H](CCC(=O)O)NC(=O)[C@@H](CCC(=O)O)NC(=O)[C@@H](CCC(=O)O)NC(=O)[C@@H](CCC(=O)O)NC(=O)[C@@H](CCC(=O)O)NC(=O)[C@@H](CCC(=O)O)NC(=O)CN1CCN(CC(=O)O)CCN(CC(=O)O)CCN(CC(=O)O)CC1)C(=O)N[C@@H](CC(=O)O)C(=O)N[C@@H](Cc1ccccc1)C(N)=O` [CP04, DOTA-glu^1-glu^2-glu^3-glu^4-glu^5-glu^6-Ala^7-Tyr^8-Gly^9-Trp^10-Met^11-Asp^12-Phe^13-NH2, reference compound]: the IC50 under setting [1] is 11.2 ± 0.2 nM.

With `CCCC[C@@H](C(=O)N[C@@H](CC(=O)O)C(=O)N[C@@H](Cc1ccc(O)cc1)C(N)=O)N(C)C(=O)[C@@H](N)Cc1c[nH]c2ccccc12` [H-Trp-(N-Me)Nle-Asp-Tyr-NH2] (H-W[NMeNle]DY-NH2), the IC50 under setting [1] is 5.7 ± 0.5 nM.

With `CCCC[C@@H](C(=O)N[C@@H](CC(=O)O)C(=O)N[C@@H](Cc1c[nH]c2ccccc12)C(N)=O)N(C)C(=O)[C@@H](N)Cc1c[nH]c2ccccc12` [H-Trp-(N-Me)Nle-Asp-Trp-NH2] (H-W[NMeNle]DW-NH2), the IC50 under setting [1] stood at 18.8 ± 0.5 nM. For the compound `CCCC[C@H](NC(=O)[C@H](Cc1c[nH]c2ccccc12)NC(=O)CNC(=O)[C@H](Cc1ccc(O)cc1)NC(=O)[C@H](C)NC(=O)[C@@H](CCC(=O)O)NC(=O)[C@@H](CCC(=O)O)NC(=O)[C@@H](CCC(=O)O)NC(=O)[C@@H](CCC(=O)O)NC(=O)[C@@H](CCC(=O)O)NC(=O)[C@@H](CCC(=O)O)NC(=O)CN1CCN(CC(=O)O)CCN(CC(=O)O)CCN(CC(=O)O)CC1)C(=O)N[C@@H](CC(=O)O)C(=O)N[C@@H](Cc1ccccc1)C(N)=O` [DOTA-PP-F11N, DOTA-glu^1-glu^2-glu^3-glu^4-glu^5-glu^6-Ala^7-Tyr^8-Gly^9-Trp^10-Nle^11-Asp^12-Phe^13-NH2, reference compound], the IC50 was found to be 12.8 ± 2.8 nM. As to `CCCC[C@H](NC(=O)[C@@H](N)Cc1c[nH]c2ccccc12)C(=O)N[C@@H](CC(=O)O)C(=O)N[C@@H](Cc1ccccc1)C(N)=O` [H-Trp-Nle-Asp-Phe-NH2] (H-W[Nle]DF-NH2), the IC50 under setting [1] came out at 466 ± 88 nM.

As to `CCCC[C@@H](C(=O)N[C@@H](CC(=O)O)C(=O)N[C@@H](Cc1cccc2ccccc12)C(N)=O)N(C)C(=O)[C@H](Cc1c[nH]c2ccccc12)NC(=O)CCOCCOCCOCCOCCNC(=O)CC[C@@H](NC(=O)CC[C@H](C(=O)O)N1CCN(CC(=O)O)CCN(CC(=O)O)CCN(CC(=O)O)CC1)C(=O)O` [(R)-DOTAGA-CCK-66, (R)-DOTAGA-γ-glu-(PEG)3-Trp-(N-Me)Nle-Asp-1-Nal-NH2] ({X2-d(γGlu)-PEG4}-W[NMeNle]D[1Nal]-NH2), the IC50 under setting [3] was 16 ± 2.1 nM. `CCCC[C@@H](C(=O)N[C@@H](CC(=O)O)C(=O)N[C@@H](Cc1ccccc1)C(N)=O)N(C)C(=O)[C@@H](N)Cc1c[nH]c2ccccc12` [H-Trp-(N-Me)Nle-Asp-Phe-NH2] (H-W[NMeNle]DF-NH2): under setting [1], the IC50 is 4.5 ± 0.6 nM.

For the compound `CCCC[C@@H](C(=O)N[C@@H](CC(=O)O)C(=O)N[C@@H](Cc1cccc2ccccc12)C(N)=O)N(C)C(=O)[C@H](Cc1c[nH]c2ccccc12)NC(=O)CNC(=O)CNC(=O)[C@H](C)NC(=O)CNC(=O)CN1CCN(CC(=O)O)CCN(CC(=O)O)CCN(CC(=O)O)CC1` [DOTA-CCK-61, DOTA-Gly-Ala-(Gly)2-Trp-(N-Me)Nle-Asp-1-Nal-NH2] ({DOTA}-GAGGW[NMeNle]D[1Nal]-NH2), the IC50 under setting [2] was 9.7 ± 1.7 nM.
